Literature values in patent publication US20060194715A1, “Proteins encoded by ble genes and antibiotics from the bleomycin family” (priority 2002, published 2006).
Where “and” joins values, the source holds several entries; their conditions need not be identical. Equal entries are not always repeated. Where two headings read alike, the source gives them in different places.

Target: T1, Sh ble protein (Streptoalloteichus hindustanus, UniProt P17493)
T1 sequence (P17493 1-124): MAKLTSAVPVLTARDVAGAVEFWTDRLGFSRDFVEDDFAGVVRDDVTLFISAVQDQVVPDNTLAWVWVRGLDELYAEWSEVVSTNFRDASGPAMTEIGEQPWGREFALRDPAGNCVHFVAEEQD

For bleomycin, the Kd (first bleomycin molecule bound, read-out: first affinity (single molecule of bleomycin bound to Sh ble dimer)) is given as about 600 nM and the Kd (second bleomycin molecule bound, read-out: second affinity (two molecules of bleomycin bound to Sh ble dimer)) is given as ~100 nM and ≤ 100 nM.
